Reference: US11903917B2, “MEK-inhibitor for the treatment of viral and bacterial infections” (priority 2017, dated 2024)
Read-outs that look alike come from different tables or passages of the source.

Tests used:
S. aureus 6850 [1] = assay type: cell-based, Staphylococcus aureus
[2] = system: influenza A virus strain RB1 [A/Regensburg/D6/09 (H1N1 pdm09)]; details: against RB1, Haasbach et al. 2017; cited from earlier work
S. aureus 6850 [3] = test: Over-night treated culture, bacterial titers (CFU/ml) and OD600; assay type: cell-based, Staphylococcus aureus; details: for effect on bacterial titers (CFU/ml): over night treatment, S. aureus 6850, vs solvent
[4] = system: MRSA strain S. aureus (USA300); test: Cell-free culture bacterial growth (OD600); details: 50 μM, monitored for 360 minutes, vs solvent DMSO
Description: Bacterial growth was monitored for 360 minutes.
MRSA bacteria were incubated with different concentrations of the MEK inhibitor ranging from 0-100 μM and bacterial growth was monitored six hours after cultivation.

[5] = Pharmacokinetics, drug in plasma after i.v. or per os application; assay type: in vivo, NMRI mice
Description: Blood was collected at 15 min, 30 min, 1 h, 2 h, 4 h, 6 h, 8 h and 24 h (test day 2) after administration and plasma was analysed for the presence of the drug. […] Blood was collected at 15 min, 30 min, 1 h, 2 h, 4 h, 6 h, 8 h and 24 h (test day 2) after administration and plasma was analysed for the presence of the drug. Each data point represents the mean value of three plasma samples. Graphpad Prism 7 software was used to illustrate both figures.
34.88 mg PD-0184264 were dissolved in 0.075 ml DMSO and further diluted with 0.225 ml Cremophor EL/2.7 ml PBS. […] 81.0 mg PD-0184264 were dissolved in 0.2 ml DMSO/0.6 ml Cremophor EL/3.2 ml PBS.
Eight week old male NMRI mice (Charles River Laboratories, Germany) with a body weight of 23.9-36.5 g at administration were used for pharmacokinetic studies. The animals were normally fed. Drinking water was available ad libitum.
Experiments were performed at LPT GmbH (Hamburg, Germany). Sufficient whole blood—taken under isoflurane anaesthesia—was collected to obtain at least 2×100 μl Li-Heparin plasma of 3 animals per group and time-point at the following times: 0 (predose), 15 min, 30 min, 1 h, 2 h, 4 h, 6 h, 8 h and 24 h (test day 2) after administration. The whole blood samples were instantly cooled using an Iso-Therm-Rack system (Eppendorf AG, Germany) until centrifugation within 0.5 hours after withdrawal. Immediately after centrifugation, the samples were stored at −20° C. until further analysis. Plasma analysis was performed using standard procedures at Prolytic GmbH (Frankfurt, Germany).
Drugs were either administrated using a single dosing on test day 1 by oral gavage or by Intravenous bolus injection into a tail vein. The Injection speed was 15 s/dose with an administration volume of 200 μl.

[6] = system: influenza A virus strain RB1 [A/Regensburg/D6/09 (H1N1 pdm09)]; test: Progeny virus inhibition assay in A549 cells; assay type: cell-based
A549 cells = details: read-out: CC50 value; Haasbach et al. 2017; cited from earlier work
S. aureus 6850 [7] = test: MIC of antibiotics (MIC test stripes) after over-night treatment of bacteria with PD0184264; assay type: cell-based, Staphylococcus aureus; details: for MIC: read-out: Minimal inhibitory concentration (MIC)
S. aureus USA300 = test: as above; assay type: cell-based, Staphylococcus aureus; details: for MIC: Staphylococcus aureus, read-out: Minimal inhibitory concentration (MIC)
S. aureus = test: Resistance development during 17 days of constant treatment; assay type: cell-based, Staphylococcus aureus; details: 24 h cycles repeated for 17 days
MRSA strain USA300 = test: Over-night treated culture, bacterial titers (CFU/ml) and OD600; assay type: cell-based, Staphylococcus aureus
[8] = Staphylococcus aureus, 6850, S. aureus 6850, culture treated over night with 20 μM PD0184264
[9] = Staphylococcus aureus, 6850, S. aureus 6850, untreated (solvent) culture
[10] = USA300, S. aureus USA300, culture treated over night with PD0184264
[11] = USA300, S. aureus USA300, untreated (solvent) culture
[12] = S. aureus 6850, culture treated over night with 20 μM PD0184264
[13] = S. aureus 6850, untreated (solvent) culture
[14] = S. aureus USA300, culture treated over night with PD0184264
[15] = S. aureus USA300, untreated (solvent) culture

O=C(NOCC1CC1)c1ccc(F)c(F)c1Nc1ccc(I)cc1Cl [CI-1040, 2-(2-chloro-4-iodophenylamino)-N-(cyclopropylmethoxy)-3,4-difluoro benzamide, reference compound]
intracellular bacterial titers (S. aureus 6850 [1]): no changes in intracellular bacterial load | EC50 [2]: 26 nM | effect on bacterial titers (CFU/ml) (S. aureus 6850 [3]): effective | bacterial growth (OD600) [4]: slightly inhibited | drug in plasma at eight hours ([5]; 75 mg/kg i.v. application): almost no drug was detected | drug in plasma at eight hours ([5]; 150 mg/kg per os application): almost no drug was detected | reduction of virus titer [6]: 96.78±0.65% | CC50 (A549 cells): > 312 µM

O=C(O)c1cn(C2CC2)c2cc(N3CCNCC3)c(F)cc2c1=O [Ciprofloxacin]
MIC (S. aureus 6850 [7]; [8]): 0.12 to 0.25 µg/mL | MIC (S. aureus 6850 [7]; [9]): 0.25 µg/mL | MIC (S. aureus USA300; [10]): 4 to 8 µg/mL | MIC (S. aureus USA300; [11]): 8 µg/mL

CC[C@H]1OC(=O)[C@H](C)[C@@H](O[C@H]2C[C@@](C)(OC)[C@@H](O)[C@H](C)O2)[C@H](C)[C@@H](O[C@@H]2O[C@H](C)C[C@H](N(C)C)[C@H]2O)[C@](C)(O)C[C@@H](C)C(=O)[C@H](C)[C@@H](O)[C@]1(C)O [Erythromycin]
resistance development in S. aureus (S. aureus): readily develop resistances

CC(=O)NC[C@H]1CN(c2ccc(N3CCOCC3)c(F)c2)C(=O)O1 [Linezolid]
MIC (S. aureus 6850 [7]; [8]): 1 µg/mL | MIC (S. aureus 6850 [7]; [9]): 2 µg/mL | MIC (S. aureus USA300; [10]): 1 µg/mL | MIC (S. aureus USA300; [11]): 2 µg/mL

C[C@@H](O)[C@H]1C(=O)N2C(C(=O)O)=C(S[C@@H]3CN[C@H](C(=O)N(C)C)C3)[C@H](C)[C@H]12 [Meropenem]
MIC (S. aureus 6850 [7]; [8]): 0.03 µg/mL | MIC (S. aureus 6850 [7]; [9]): 0.06 µg/mL | MIC (S. aureus USA300; [10]): 0.06 µg/mL | MIC (S. aureus USA300; [11]): 0.12 to 0.25 µg/mL

N#CC(=C(/N)Sc1ccccc1N)/C(C#N)=C(\N)Sc1ccccc1N [U0126, reference compound]
effect on bacterial titers (CFU/ml) (S. aureus 6850 [3]): minor reduction in bacterial titers | effect on bacterial titers (CFU/ml) (MRSA strain USA300; over night treatment, MRSA USA300, vs solvent): minor reduction in bacterial titers

Gentamicin
reduction in bacterial titers (S. aureus 6850 [3]; 0.5 μg/ml, over night, S. aureus 6850): no reduction in bacterial titers | bacterial growth (S. aureus 6850 [3]; concentrations higher than 1 μg/ml, over night, S. aureus 6850): strongly inhibited | reduction in bacterial titers (MRSA strain USA300; 0.5 μg/ml, over night, MRSA USA300): no reduction in bacterial titers | bacterial growth (MRSA strain USA300; concentrations higher than 1 μg/ml, over night, MRSA USA300): strongly inhibited | resistance development in S. aureus (S. aureus): resistance development occurred during the first week of treatment | Minimal inhibitory concentration (MIC) (S. aureus 6850 [7]; [12]): 0.12 mg/L | Minimal inhibitory concentration (MIC) (S. aureus 6850 [7]; [13]): 2 mg/L | Minimal inhibitory concentration (MIC) (S. aureus USA300; [14]): 0.12 mg/L | Minimal inhibitory concentration (MIC) (S. aureus USA300; [15]): 1 mg/L

Penicillin
Minimal inhibitory concentration (MIC) (S. aureus 6850 [7]; [12]): 0.25 to 0.5 mg/L | Minimal inhibitory concentration (MIC) (S. aureus 6850 [7]; [13]): 16 mg/L | Minimal inhibitory concentration (MIC) (S. aureus USA300; [14]): 8 mg/L | Minimal inhibitory concentration (MIC) (S. aureus USA300; [15]): >256 mg/L
